Legend:
HNDF cells = assay: MTT growth/viability assay, HNDF; assay type: cell-based, human; details: 72 h
Experimental: MTT assays were performed in 96 well plates. After treatments, medium was replaced with 200 μL of MTT solution (3 mg mL^−1 MTT (Sigma #M2128) in PBS diluted 1:5 in growth medium). […] Volume of 200 μL DMSO per well were added and plates were read at 570 nm.

human mdm2 (hdm2) = biological target: T1, human mdm2 (hdm2) (Homo sapiens, UniProt Q00987); assay: hdm2 binding (CETSA in ARN8 extracts; ELISA with IP3 peptide); details: CETSA at 100 μM
T1 construct: ARN8 soluble cell extracts were prepared for the cellular thermal shift assay (CETSA); endogenous in cells; host or cells: ARN8 human melanoma cells (soluble extract)
T1 sequence (Q00987 whole entry): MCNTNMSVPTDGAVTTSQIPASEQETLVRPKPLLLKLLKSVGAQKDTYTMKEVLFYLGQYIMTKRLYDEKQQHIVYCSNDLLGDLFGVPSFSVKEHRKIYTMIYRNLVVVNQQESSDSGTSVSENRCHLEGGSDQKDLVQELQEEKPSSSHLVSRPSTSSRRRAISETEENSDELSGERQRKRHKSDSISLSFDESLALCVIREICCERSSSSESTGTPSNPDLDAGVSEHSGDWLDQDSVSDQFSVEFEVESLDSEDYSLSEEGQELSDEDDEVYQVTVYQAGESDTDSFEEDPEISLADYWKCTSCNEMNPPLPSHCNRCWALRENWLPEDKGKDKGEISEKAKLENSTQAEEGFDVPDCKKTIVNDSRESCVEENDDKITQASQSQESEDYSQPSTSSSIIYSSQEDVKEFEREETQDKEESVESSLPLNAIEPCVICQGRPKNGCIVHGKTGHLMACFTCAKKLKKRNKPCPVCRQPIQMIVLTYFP
Experimental: Levels of gapdh were used to monitor protein loading. e ARN8 or HNDF cells were treated with the indicated compound concentrations for 72 h and subjected to MTT assays. […] Incorporation of ^35S in the p53 immunoprecipitate was determined by autoradiography. The experiment is shown in duplicate
corresponds to residues 17−26 of wild-type p53) was determined by ELISA (See
supplementary information9). The percentage hdm2/hdmx bound to IP3 relative to the vehicle
upon which cycloheximide (CHX) (10 µg mL-1) was added for the indicated periods of time. […]

[1] = test system: P-chk1 (Ser 345)/chk1 in ARN8 cells; assay: P-chk1/chk1 ratio by western blotting, ARN8; assay type: cell-based, human; details: first blot (taken as ARN8)
From the text: (§1) (Ser 345) and chk1 were detected. Ponceau S staining was used to monitor loading. […]

[2] = test system: P-chk1 (Ser 345)/chk1 in HNDF cells; assay: P-chk1/chk1 ratio by western blotting, HNDF; assay type: cell-based, human; details: second blot (taken as HNDF)
Experimental: (Sigma, #N9162) for a further 2 h. […]
as §1

lipid kinases = assay: ADP-Glo kinase assays, panel of 16 lipid kinases (Supplementary Table 3); assay type: biochemical
From the text: Supplementary Table 3. In vitro inhibition (% remaining activity) of lipid […]
kinases using ADP-Glo™ kinase assays (Promega) according to manufacturer ’s instructions (International Centre for Kinase Profiling, Dundee, UK).
(1 picture or pasted object on this page, not shown here)

CDK1/CycA2 = CDK1/CycA2 (Homo sapiens, UniProt P06493); assay: biochemical; parameters: radiometric 33PanQinase protein kinase activity assay, CDK/cyclin panel, per cent remaining activity; details: read-out: HZ00 10 µM Average (% remaining activity)
Chain of CDK1/CycA2 (P06493 whole entry): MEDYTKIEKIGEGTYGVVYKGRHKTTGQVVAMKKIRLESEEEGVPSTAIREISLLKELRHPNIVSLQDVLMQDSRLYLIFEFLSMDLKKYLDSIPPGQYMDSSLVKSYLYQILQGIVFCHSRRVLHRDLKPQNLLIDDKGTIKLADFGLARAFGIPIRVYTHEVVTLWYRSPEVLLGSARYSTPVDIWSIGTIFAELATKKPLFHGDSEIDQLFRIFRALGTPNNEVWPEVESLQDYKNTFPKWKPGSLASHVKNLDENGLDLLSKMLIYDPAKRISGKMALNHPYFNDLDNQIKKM
Chain of CDK1/CycA2 (P20248 whole entry partner): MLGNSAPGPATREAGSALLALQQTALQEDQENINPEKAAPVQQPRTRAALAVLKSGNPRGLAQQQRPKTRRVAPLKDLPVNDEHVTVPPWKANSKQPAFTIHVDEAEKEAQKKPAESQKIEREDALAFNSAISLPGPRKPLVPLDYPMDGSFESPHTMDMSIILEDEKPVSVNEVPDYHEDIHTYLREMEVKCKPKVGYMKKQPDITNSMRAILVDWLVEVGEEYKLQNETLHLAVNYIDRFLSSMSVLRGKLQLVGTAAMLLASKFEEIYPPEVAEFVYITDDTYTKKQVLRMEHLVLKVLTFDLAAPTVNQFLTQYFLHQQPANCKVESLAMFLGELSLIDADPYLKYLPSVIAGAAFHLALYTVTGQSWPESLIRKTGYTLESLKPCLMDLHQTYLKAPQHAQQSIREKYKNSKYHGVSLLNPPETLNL
From the text: (§2) Supplementary Table 1. In vitro inhibition (% remaining activity) of cyclin-dependent
(§3) ProQinase GmbH (Freiburg, Germany) using a radiometric protein kinase assay
(§4) (33PanQinase® Activity Assay).
(§5) (1 picture or pasted object on this page, not shown here) 32 Supplementary Table 1. In vitro inhibition (% remaining activity) of cyclin-dependent kinases (CDKs).

CDK8/CycC = CDK8/CycC (Homo sapiens, UniProt P49336); assay: biochemical; parameters: radiometric 33PanQinase protein kinase activity assay, CDK/cyclin panel, per cent remaining activity; details: read-out: HZ00 10 µM Average (% remaining activity)
Chain of CDK8/CycC (P49336 whole entry): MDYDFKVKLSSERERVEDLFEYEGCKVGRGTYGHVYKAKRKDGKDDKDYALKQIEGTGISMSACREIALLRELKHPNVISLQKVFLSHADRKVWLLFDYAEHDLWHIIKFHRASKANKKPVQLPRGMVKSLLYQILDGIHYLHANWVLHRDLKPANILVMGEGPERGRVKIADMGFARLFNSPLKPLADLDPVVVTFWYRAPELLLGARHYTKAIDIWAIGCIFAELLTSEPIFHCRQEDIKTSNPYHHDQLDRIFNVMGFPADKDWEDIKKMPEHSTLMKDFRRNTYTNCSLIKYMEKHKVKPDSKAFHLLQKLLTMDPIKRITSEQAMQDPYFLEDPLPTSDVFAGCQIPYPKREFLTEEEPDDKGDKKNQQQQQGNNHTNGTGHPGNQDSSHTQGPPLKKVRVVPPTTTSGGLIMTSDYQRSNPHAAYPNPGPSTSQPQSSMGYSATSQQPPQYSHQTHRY
Chain of CDK8/CycC (P24863 whole entry partner): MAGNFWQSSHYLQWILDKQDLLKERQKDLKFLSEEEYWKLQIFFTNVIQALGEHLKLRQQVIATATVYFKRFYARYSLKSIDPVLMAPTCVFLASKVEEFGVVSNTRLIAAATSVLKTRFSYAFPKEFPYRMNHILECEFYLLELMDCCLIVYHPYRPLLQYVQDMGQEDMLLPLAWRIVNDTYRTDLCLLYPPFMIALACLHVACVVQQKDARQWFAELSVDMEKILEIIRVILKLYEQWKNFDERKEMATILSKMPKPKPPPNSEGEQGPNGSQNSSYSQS
From the text: as §2, §3, §4, §5

CDK9/CycK = CDK9/CycK (Homo sapiens, UniProt P50750); assay: biochemical; parameters: radiometric 33PanQinase protein kinase activity assay, CDK/cyclin panel, per cent remaining activity; details: read-out: HZ00 10 µM Average (% remaining activity)
Chain of CDK9/CycK (P50750 whole entry): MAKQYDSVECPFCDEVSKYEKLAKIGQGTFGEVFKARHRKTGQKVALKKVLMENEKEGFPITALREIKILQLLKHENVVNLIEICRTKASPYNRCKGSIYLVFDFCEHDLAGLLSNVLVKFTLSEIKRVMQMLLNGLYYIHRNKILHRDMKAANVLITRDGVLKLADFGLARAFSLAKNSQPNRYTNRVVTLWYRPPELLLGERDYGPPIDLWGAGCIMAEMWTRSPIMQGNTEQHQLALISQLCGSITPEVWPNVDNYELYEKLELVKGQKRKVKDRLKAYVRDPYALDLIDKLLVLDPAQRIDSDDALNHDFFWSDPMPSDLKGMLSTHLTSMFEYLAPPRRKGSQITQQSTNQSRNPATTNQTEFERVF
Chain of CDK9/CycK (O75909 whole entry partner): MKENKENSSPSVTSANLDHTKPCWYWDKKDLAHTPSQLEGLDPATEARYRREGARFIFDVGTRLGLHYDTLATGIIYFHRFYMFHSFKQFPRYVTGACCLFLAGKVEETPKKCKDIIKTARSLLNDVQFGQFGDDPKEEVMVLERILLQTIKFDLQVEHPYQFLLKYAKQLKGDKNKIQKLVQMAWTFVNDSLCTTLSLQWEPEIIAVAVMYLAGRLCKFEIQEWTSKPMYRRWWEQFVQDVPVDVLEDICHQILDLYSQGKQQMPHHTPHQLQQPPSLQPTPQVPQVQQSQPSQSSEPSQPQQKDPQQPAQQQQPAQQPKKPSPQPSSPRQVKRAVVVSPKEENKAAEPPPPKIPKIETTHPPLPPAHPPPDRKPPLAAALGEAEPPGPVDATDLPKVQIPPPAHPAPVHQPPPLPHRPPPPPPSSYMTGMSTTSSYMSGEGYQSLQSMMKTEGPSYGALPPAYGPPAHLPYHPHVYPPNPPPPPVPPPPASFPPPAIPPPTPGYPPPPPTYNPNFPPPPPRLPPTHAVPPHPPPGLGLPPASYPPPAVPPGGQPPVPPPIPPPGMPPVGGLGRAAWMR
From the text: as §2, §3, §4, §5

PCTAIRE1/CycY = biological target: T2, PCTAIRE1/CycY (Homo sapiens, UniProt Q00536); assay: biochemical; parameters: radiometric 33PanQinase protein kinase activity assay, CDK/cyclin panel, per cent remaining activity; details: read-out: HZ00 10 µM Average (% remaining activity)
T2 construct: gene CDK16
T2 sequence (Q00536 whole entry): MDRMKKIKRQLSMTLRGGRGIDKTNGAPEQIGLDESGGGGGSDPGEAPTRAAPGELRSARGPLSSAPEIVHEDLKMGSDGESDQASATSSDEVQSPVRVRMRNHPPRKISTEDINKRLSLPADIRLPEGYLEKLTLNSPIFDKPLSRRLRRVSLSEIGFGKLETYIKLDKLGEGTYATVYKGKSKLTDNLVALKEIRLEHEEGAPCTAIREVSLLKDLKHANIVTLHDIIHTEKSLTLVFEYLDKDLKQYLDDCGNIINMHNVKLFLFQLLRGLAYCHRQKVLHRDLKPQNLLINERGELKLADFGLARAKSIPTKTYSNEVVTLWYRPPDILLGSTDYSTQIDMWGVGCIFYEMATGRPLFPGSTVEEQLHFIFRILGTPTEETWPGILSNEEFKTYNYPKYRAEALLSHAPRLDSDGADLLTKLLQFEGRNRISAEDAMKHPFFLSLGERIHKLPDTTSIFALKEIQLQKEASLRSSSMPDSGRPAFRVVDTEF
T2 sequence (Q8ND76 whole entry partner): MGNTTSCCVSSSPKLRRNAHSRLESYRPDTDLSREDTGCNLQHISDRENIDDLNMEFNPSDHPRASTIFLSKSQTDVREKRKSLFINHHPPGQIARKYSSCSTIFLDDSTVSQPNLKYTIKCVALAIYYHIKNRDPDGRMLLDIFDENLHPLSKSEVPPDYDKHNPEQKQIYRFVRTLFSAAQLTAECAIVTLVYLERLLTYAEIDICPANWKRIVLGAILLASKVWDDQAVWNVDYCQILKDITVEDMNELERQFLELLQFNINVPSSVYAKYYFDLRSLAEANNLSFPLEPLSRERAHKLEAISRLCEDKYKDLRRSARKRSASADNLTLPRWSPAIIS
From the text: as §2, §3, §4, §5

U2OS cells = assay: PI flow cytometry, sub-G1 cells, U2OS; assay type: cell-based
Experimental: (§6) Cell cycle distribution analysis was performed on a Becton Dickinson FACScan flow cytometer or FACSCalibur (BD Biosciences) following staining with propidium iodide (PI) or dual labeling with BrdU and PI[36]. These assays were analyzed using CellQuest Pro (BD Biosciences).

MV411 cells = assay: PI flow cytometry, sub-G1 cells, MV411; assay type: cell-based
Experimental: as §6

ARN8 cells = assay: Giemsa staining of ARN8 cultures (uridine, orotic acid, dihydroorotic acid supplementation); assay type: cell-based, human; details: 72 h, 2.5 or 5 μM uridine, serum replacement medium
Experimental: Additionally, ARN8 cells were treated for 16 h and p53-dependent transcription was measured by CPRG assay. Values correspond to the average of three technical repeats ± SD. c Simplified description of the pyrimidine nucleotide de novo (blue) and salvage (black) pathways. d ARN8 cells were seeded in FBS supplemented DMEM with a change to serum replacement medium 24 h post seeding. […] Values correspond to the average of three technical repeats ± SD. f ARN8 cells were seeded in FBS supplemented DMEM with a change to serum replacement medium 24 h post seeding.

ARN8 xenograft = assay: ARN8 subcutaneous xenograft; assay type: in vivo; details: ARN8 xenograft
Outline: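 NSG mice (n = 8 per group) received 2 × 10^6 ARN8 cells subcutaneously in the flank in PBS:Matrigel (3:1). Treatment with (R)-HZ05 combined with nutlin-3a, at a previously determined maximum tolerated dose, started at ~50 mm^3 tumors. Volumes were caliper-measured every second day as π(length × width × height)/6.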

[3] = HZ05 1 μM 72 h + 48 h, 2 μM nutlin-3a last 48 h
[4] = HZ05 1 μM 72 h + 48 h, DMSO last 48 h

`O=C(NC1CCCc2c1cnn2-c1ccccc1F)c1ccccn1` (stereo not drawn) [HZ00] was tested, and the “inhibitory effect on proliferation, HNDF versus ARN8” value (HNDF cells) was “lesser inhibitory effect on proliferation of HNDFs than on the growth of ARN8 cells”, the “binding to human mdm2 (hdm2)” value (human mdm2 (hdm2)) was “does not bind” and the P-chk1/chk1 ([1]; HZ00 10 µM, 24 h) was 1.02. The P-chk1/chk1 ([1]; HZ00 10 µM, 48 h) was 1.28, the P-chk1/chk1 ([1]; HZ00 10 µM, 72 h) was 0.78 and the P-chk1/chk1 ([1]; HZ00 20 µM, 24 h) was 0.94. For the same compound, the P-chk1/chk1 ([1]; HZ00 20 µM, 48 h) was 1.41, the P-chk1/chk1 ([1]; HZ00 20 µM, 72 h) was 0.87 and the P-chk1/chk1 ([2]; HZ00 10 µM, 24 h) was 0.98. The P-chk1/chk1 ([2]; HZ00 10 µM, 48 h) was 0.89, the P-chk1/chk1 ([2]; HZ00 10 µM, 72 h) was 1.13 and the P-chk1/chk1 ([2]; HZ00 20 µM, 24 h) was 1.08. For the same compound, the P-chk1/chk1 ([2]; HZ00 20 µM, 48 h) was 1.05, the P-chk1/chk1 ([2]; HZ00 20 µM, 72 h) was 1.07 and the “inhibition of lipid kinases” value (lipid kinases) was “did not detect inhibition”. The remaining activity at 10 µM (CDK1/CycA2) was 89.1%, the remaining activity at 10 µM (CDK8/CycC) was 95.2% and the remaining activity at 10 µM (CDK9/CycK) was 100%. For the same compound, the remaining activity at 10 µM (PCTAIRE1/CycY) was 103%.
`O=C(NC1CCCc2c1cnn2-c1ccccc1F)c1onc2c1CCCC2` (stereo not drawn) [HZ05] was tested, and the sub-G1 cells (U2OS cells; [3]) was 38.2%, the sub-G1 cells (U2OS cells; [4]) was 25.7% and the sub-G1 cells (U2OS cells; HZ05 1 μM, 72 h treatment) was 3.7%. For the same compound, the sub-G1 cells (U2OS cells; HZ05 2.5 μM, 72 h treatment) was 4.8%, the sub-G1 cells (MV411 cells; [3]) was 65.4% and the sub-G1 cells (MV411 cells; [4]) was 30.2%. The sub-G1 cells (MV411 cells; HZ05 1 μM, 72 h treatment) was 5.5%, the sub-G1 cells (MV411 cells; HZ05 2.5 μM, 72 h treatment) was 6.2% and the “tumor cell growth at physiological uridine levels” value (ARN8 cells) was “able to ablate tumor cell growth”. For the same compound, the “xenograft tumor growth, combination with nutlin-3a” value (ARN8 xenograft; (R)-HZ05 75 mg/kg q.d. s.c. + nutlin-3a 50 mg/kg b.i.d. orally, 10 days) was “statistically significant reduction in xenograft growth” and the “xenograft tumor growth, single agent” value (ARN8 xenograft; (R)-HZ05 75 mg/kg q.d. s.c. or nutlin-3a 50 mg/kg b.i.d. orally) was “ineffective”.

Reference: paper PMC5856786, “A DHODH inhibitor increases p53 synthesis and enhances tumor cell killing by p53 degradation blockage” (Nature Communications, 2018)
